Results as given in patent US20070213359A1 (ACADIA Pharmaceuticals Inc., priority 2005, published 2007).
Where two headings read alike, the source gives them in different places.

Target: Ghrelin receptor (Homo sapiens, UniProt Q92847)
Experiment: Receptor Selection and Amplification Technology (R-SAT) assay
Assay type: cell-based
Set-up: expressed in transfected cells; host or cells: NIH3T3
Conditions: for IC50: '—' not defined (nd used separately), read-out: RSAT pIC50 (converted); for Emax: read-out: RSAT Eff(%)
[1] = negative logarithm of ligand concentration causing 50% inhibition of constitutive receptor response, transfected NIH3T3 cells
[2] = percent inhibition at saturating ligand, normalized to reference ligand Substance P analog = 100%

Chain of Ghrelin receptor (Q92847 whole entry): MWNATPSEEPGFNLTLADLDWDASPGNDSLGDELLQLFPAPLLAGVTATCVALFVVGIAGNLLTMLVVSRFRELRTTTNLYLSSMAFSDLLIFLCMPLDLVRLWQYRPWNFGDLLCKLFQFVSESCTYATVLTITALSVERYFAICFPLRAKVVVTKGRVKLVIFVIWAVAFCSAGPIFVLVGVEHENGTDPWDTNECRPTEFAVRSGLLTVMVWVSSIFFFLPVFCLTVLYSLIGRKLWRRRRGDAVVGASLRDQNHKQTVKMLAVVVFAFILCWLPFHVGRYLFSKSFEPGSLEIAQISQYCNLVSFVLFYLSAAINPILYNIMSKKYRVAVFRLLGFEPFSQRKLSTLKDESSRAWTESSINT

Structure (SMILES) | IC50 [1] | Emax [2] | IC50 ([…]) | Emax | RSAT Eff(%) [2]
CC(=O)c1cn(CCCN2CCC(Oc3cccc(Cl)c3)CC2)c2c(Br)cccc12 | 1 nM | 92% | – | – | –
COc1cccc2c(C(=O)C3CC3)cn(CCCN3C4CCC3CC(CCc3ccccc3)C4)c12 (stereo not drawn) | – | – | 2.51 nM | 109% | –
CC(=O)c1cn(CCCN2CCCN(Cc3ccc(F)cc3)CC2)c2c(C)cccc12 | – | – | 2.51 nM | 95% | –
COc1cccc2c(C(=O)NCc3cccc(Cl)c3)cn(CCCN3CCCN(Cc4ccc(F)cc4)CC3)c12 | – | – | 3.16 nM | 113% | –
COc1cccc2c(C(=O)Cc3ccccc3)cn(CCCN3C4CCC3CC(Oc3ccccc3Cl)C4)c12 (stereo not drawn) | – | – | 3.98 nM | 129% | –
COc1cccc2c(C(=O)C3CC3)cn(CCCN3CCC4(CC3)CC(=O)c3ccccc3O4)c12 | – | – | 3.98 nM | 106% | –
CC(=O)c1cn(CCCN2CCCN(Cc3ccc(F)cc3)CC2)c2ncccc12 | 5.01 nM | 136% | – | – | –
CC(=O)c1cn(CCCN2CCCN(Cc3ccc(F)cc3)CC2)c2c(Br)cccc12 | 5.01 nM | 95% | – | – | –
CC(=O)c1cn(CCCN2C3CCC2CC(CCc2ccccc2)C3)c2c(C)cccc12 (stereo not drawn) | 6.31 nM | 105% | – | – | –
CC(=O)c1cn(CCCN2CCCN(Cc3ccc(F)cc3)CC2)c2c(Cl)cccc12 | 7.94 nM | 115% | – | – | –
CC(=O)c1cn(CCCN2CCCN(CCc3ccccc3)CC2)c2c(Cl)cccc12 | 10 nM | 96% | – | – | –
CC(=O)c1cn(CCCN2CCC(Oc3cccc(Cl)c3)CC2)c2c(C)cccc12 | 10 nM | 96% | – | – | –
CC(=O)c1cn(CCCN2C3CCC2CC(CCc2ccccc2)C3)c2c(Cl)cccc12 (stereo not drawn) | 12.6 nM | 109% | – | – | –
COc1cccc2c(C#N)cn(CCCN3CCCN(Cc4ccc(F)cc4)CC3)c12 | 15.8 nM | 109% | – | – | –
CC(=O)c1cn(CCCN2CCN(Cc3ccc(Cl)cc3Cl)CC2)c2c(C#N)cccc12 | 15.8 nM | 92% | – | – | –
CC(=O)c1cn(CCCN2C3CCC2CC(Oc2ccc(F)cc2)C3)c2c(Br)cccc12 (stereo not drawn) | 15.8 nM | 81% | – | – | –
COc1cccc2c(C(=O)NCc3cccc(C)c3)cn(CCCN3C4CCC3CC(Oc3ccc(F)cc3)C4)c12 (stereo not drawn) | 15.8 nM | – | – | – | 112%
CC(=O)c1cn(CCCN2C3CCC2CC(Oc2ccc(F)cc2)C3)c2c(C)cccc12 (stereo not drawn) | 20 nM | 98% | – | – | –
CCc1cccc2c(C(C)=O)cn(CCCN3CCCC(Cc4ccccc4Cl)C3)c12 (stereo not drawn) | 20 nM | 87% | – | – | –

Structure (SMILES) | IC50 [1] | Emax [2] | IC50 ([…]) | Emax | RSAT Eff(%) [2]
CC(=O)c1cn(CCCN2CCC(c3nc(-c4ccncc4)no3)CC2)c2c(C)cccc12 | 31.6 nM | 137% | – | – | –
CC(=O)c1cn(CCCN2C3CCC2CC(CCc2ccc(Cl)cc2)C3)c2c(Cl)cccc12 (stereo not drawn) | 31.6 nM | 122% | – | – | –
CCc1cccc2c(C(C)=O)cn(CCCN3CCCN(CCc4ccccc4)CC3)c12 | 31.6 nM | 103% | – | – | –
COc1cccc2c(C(=O)NCc3cccc(C)c3)cn(CCCN3CCC(Oc4cccc(Cl)c4)CC3)c12 | 31.6 nM | – | – | 93% | –
COc1cccc2c(C(=O)NCC(C)C)cn(CCCN3CCC(Oc4cccc(Cl)c4)CC3)c12 | 31.6 nM | – | – | 71% | –
CC(=O)c1cn(CCCN2CCN(CCOc3ccccc3)CC2)c2c(C#N)cccc12 | 31.6 nM | 86% | – | – | –
CC(=O)c1cn(CCCN2CCC(c3nc(-c4cccnc4)no3)CC2)c2c(Br)cccc12 | 39.8 nM | 119% | – | – | –
CCc1cccc2c(C(C)=O)cn(CCCN3CCN(CCOc4ccccc4)CC3)c12 | 39.8 nM | 110% | – | – | –
CC(=O)c1cn(CCCNCCOc2ccccc2)c2c(C)cccc12 | 39.8 nM | 100% | – | – | –
CC(=O)c1cn(CCCN2CCCN(CCc3ccccc3)CC2)c2c(C#N)cccc12 | 39.8 nM | 83% | – | – | –
CCc1cccc2c(C(C)=O)cn(CCCN3CCC(c4nc(-c5ccncc5)no4)CC3)c12 | 39.8 nM | 121% | – | – | –
CC(=O)c1cn(CCCN2C3CCC2CC(CCc2ccc(Cl)cc2)C3)c2c(Br)cccc12 (stereo not drawn) | 39.8 nM | 106% | – | – | –
COc1cccc2c(C(=O)Cc3ccccc3)cn(CCCN3CCCC(Oc4ccc(Cl)cc4)C3)c12 (stereo not drawn) | – | – | 316 nM | 86% | –
CC(C)CC(=O)c1cn(CCCN2CCN(C(C)c3ccccc3)CC2)c2ccccc12 (stereo not drawn) | – | – | 398 nM | 106% | –
CC(=O)c1cn(CCCCN2CCC(Oc3ccccc3Cl)CC2)c2ccccc12 | – | – | 398 nM | 46% | –
COc1cccc2c(C(=O)C3CC3)cn(CCCN3CCC(C(=O)c4ccccc4)CC3)c12 | – | – | 398 nM | 100% | –
COc1cccc2c(C(=O)C3CC3)cn(CCCN3CCC(Oc4ccc(Cl)cc4)CC3)c12 | – | – | 501 nM | 90% | –
CC(=O)c1c(C)n(CCCN2CCCN(CCc3ccccc3)CC2)c2c(Br)cccc12 | – | – | 501 nM | 42% | –
CC(=O)c1cn(CCCN2C3CCC2CC(Oc2ccc(Cl)cc2)C3)c2ccccc12 (stereo not drawn) | – | – | 501 nM | 108% | –

Structure (SMILES) | IC50 [1] | Emax [2] | IC50 ([…]) | Emax | RSAT Eff(%) [2]
COc1cccc2c(C(=O)c3ccccc3)cn(CCCN3CCC(C(=O)c4ccccc4)CC3)c12 | – | – | 501 nM | 102% | –
COc1cccc2c(C(=O)C3CC3)cn(CCCN3CCC(c4nc5ccccc5s4)CC3)c12 | – | – | 501 nM | 88% | –
CCCOC1CCN(CCCn2cc(C(C)=O)c3ccccc32)CC1 | – | – | 631 nM | 112% | –
COc1ccccc1C1CCN(CCCn2cc(C(=O)NCc3cccc(Cl)c3)c3cccc(OC)c32)CC1 | – | – | 631 nM | 127% | –
COc1ccc2[nH]c3c(c2c1)CCN(CCCn1cc(C(C)=O)c2ccc(OC)cc21)C3 | – | 69% | 794 nM | – | –
COc1ccc2[nH]c3c(c2c1)CCN(CCCn1cc(C(C)=O)c2ccccc21)C3 | – | 76% | 794 nM | – | –
CCCCC1CCN(CCCCn2cc(C(C)=O)c3ccccc32)CC1 | – | – | 794 nM | 113% | –
COc1cccc2c(C(C)=O)cn(CCCN3CCC(N4CCOCC4)CC3)c12 | – | – | 1000 nM | 95% | –
CCC(=O)c1cn(CCCN2CCC(O)(Cc3ccccc3)CC2)c2ccccc12 | – | – | 1000 nM | 73% | –
CC(=O)c1cn(CCCN2C3CCC2CC(CC(=O)c2ccccc2)C3)c2c(Cl)cccc12 (stereo not drawn) | – | – | 1580 nM | 85% | –
COc1cccc2c(C(C)=O)cn(CCCN3CCN(CC(=O)N4CCOCC4)CC3)c12 | – | – | 1580 nM | 37% | –
COc1cccc2c(C(=O)NCc3cccc(Cl)c3)cn(CCCN3CCCC(Cc4ccccc4Cl)C3)c12 (stereo not drawn) | – | – | 2000 nM | 47% | –
COc1cccc2c(C(=O)C3CC3)cn(CCCN3C4CCC3CC(CC(=O)c3ccccc3)C4)c12 (stereo not drawn) | – | – | 2000 nM | 86% | –
COc1cccc2c(C(=O)NCc3cccc(Cl)c3)cn(CCCN3CCC(C(=O)c4ccccc4)CC3)c12 | – | – | 2510 nM | 114% | –
CC(=O)c1cn(CCCN2CCC(C(=O)c3ccccc3)CC2)c2cc(Br)ccc12 | – | – | 2510 nM | 36% | –
CCCOC1CCN(CCn2cc(C(C)=O)c3ccccc32)CC1 | – | – | 3160 nM | 40% | –
CCOC(=O)C1CCN(CCn2cc(C(C)=O)c3ccccc32)CC1 | – | – | 3980 nM | 72% | –
COc1ccccc1C1CCN(CCn2cc(C(C)=O)c3ccccc32)CC1 | – | – | 5010 nM | 44% | –
CCOC(=O)C1CCN(CCCn2cc(C(=O)C(F)(F)F)c3ccccc32)CC1 | – | – | 5010 nM | 64% | –
